Experimental data published in US10105357B2, “Indication of antibiotic drugs for preparation of cancer inhibition pharmaceutical composition” (LAUNX BIOMEDICAL CO., LTD., priority 2014, dated 2018).
Structures can show the parent of a compound that is named as a salt.

How the values were obtained:
[1] = tested on: cancer cell lines; assay: Cell viability analysis (WST-1) on cancer cell lines; type: cell-based, human; conditions: drug 10 μM, 72 hours; for Inhibitory effect on cancer cell line: WST-1, OD450 nm, Table 2: drugs which do not have significant inhibitory effect; for inhibition effect on different cancer cell lines: WST-1, Table 3
[2] = tested on: LoVo (Colorectal Adenocarcinoma); assay: Cell viability analysis, colon cancer LoVo; type: cell-based, human; conditions: Homo sapiens, LoVo; drug 10 μM, 72 hours, WST-1, OD450 nm; read-out: cell viability (survival rate), LoVo

Molecule | Inhibitory effect on cancer cell line [1] | inhibition effect on different cancer cell lines [1] | viability at 10 µM [2] [%]
CCN[C@@H]1C[C@H](N)[C@@H](O[C@H]2OC(CN)=CC[C@H]2N)[C@H](O)[C@H]1O[C@H]1OC[C@](C)(O)[C@H](NC)[C@H]1O.CCN[C@@H]1C[C@H](N)[C@@H](O[C@H]2OC(CN)=CC[C@H]2N)[C@H](O)[C@H]1O[C@H]1OC[C@](C)(O)[C@H](NC)[C@H]1O.O=S(=O)(O)O.O=S(=O)(O)O.O=S(=O)(O)O.O=S(=O)(O)O.O=S(=O)(O)O [Netilmicin Sulfate] | 0 | significant inhibition effect | 
Cc1nccn1CC1CCc2c(c3ccccc3n2C)C1=O (stereo not shown) [Ondansetron hydrochloride (Zofran), Ondansetron hydrochloride] |  | significant inhibition effect | 
NNC(=O)c1ccncc1.Nc1ccc(C(=O)O)c(O)c1 [Pasiniazid] |  | significant inhibition effect | 
CCn1cc(C(=O)O)c(=O)c2cc(F)c(N3CCN(C)CC3)cc21 [Pefloxacin mesylate] |  | significant inhibition effect | 
NC(=O)c1cnccn1 [Pyrazinamide (Pyrazinoic acid amide), Pyrazinamide] |  | significant inhibition effect | 
CC1(C)[C@H](C(=O)[O-])N2C(=O)C[C@H]2S1(=O)=O.[Na+] [Sulbactam sodium (Unasyn), Sulbactam sodium] |  | significant inhibition effect | 
CC1(C)[C@H](C(=O)O)N2C(=O)C[C@H]2S1(=O)=O [Sulbactam] |  | significant inhibition effect | 81.7
CN(C/C=C/C#CC(C)(C)C)Cc1cccc2ccccc12 [Terbinafine hydrochloride (Lamisil), Terbinafine hydrochloride] |  | significant inhibition effect | 
Bismuth Subcitrate Potassium | 0 | significant inhibition effect | 
Dabigatran [BIBR-1048 (Dabigatran)] |  | significant inhibition effect | 
Meclocycline Sulfosalicylate |  | significant inhibition effect | 
Spiramycin |  | significant inhibition effect | 
Teicoplanin |  | significant inhibition effect | 
